# Measured values as given in PubChem BioAssay (NCI).
#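 Results reflect a 48-hour exposure of cells in 96-well plates to compound at five concentrations. Here, GI50 denotes the concentration required for 50% inhibition of growth. The concentration for full growth arrest is given as TGI.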
# Key:
# Experiment in all cases: growth of human tumour cells (NCI), 48 h
# [1] = system: SK-MEL-5 melanoma
# [2] = system: SK-OV-3 ovarian
# [3] = system: HOP-62 NSCLC
# [4] = system: A549 NSCLC
# [5] = system: BT-549 breast
# [6] = system: EKVX NSCLC
# [7] = system: 786-0 renal
# [8] = system: IGROV1 ovarian
# [9] = system: RXF 393 renal
# [10] = system: NCI-H522 lung
# [11] = system: TK-10 renal
# [12] = system: DU-145 prostate
# [13] = system: OVCAR-8 ovarian
# [14] = system: NCI/ADR-RES ovarian
# [15] = system: MDA-MB-231 breast
# [16] = system: SF-539 CNS
# [17] = system: OVCAR-3 ovarian
# [18] = system: CAKI-1 renal
# [19] = system: RPMI-8226 leukemia
# [20] = system: MALME-3M melanoma
# [21] = system: COLO 205 colon
# [22] = system: HCT-15 colon
# [23] = system: HT29 colon
# [24] = system: CCRF-CEM leukemia
# [25] = system: ACHN renal
# [26] = system: SW-620 colon
# [27] = system: SF-295 CNS
# [28] = system: HS 578T breast
# [29] = system: UACC-62 melanoma
# [30] = system: HL-60(TB) leukemia
# [31] = system: U251 CNS
# [32] = system: HOP-92 NSCLC
# [33] = system: NCI-H226 lung
# [34] = system: SNB-75 CNS
# [35] = system: MOLT-4 leukemia
# [36] = system: SNB-19 CNS
# [37] = system: UACC-257 melanoma
# [38] = system: HCT-116 colon
# [39] = system: NCI-H23 lung
# [40] = system: MDA-N
# [41] = system: K-562 leukemia
# [42] = system: SK-MEL-2 melanoma
# [43] = system: SK-MEL-28 melanoma
# [44] = system: SN12C renal
# [45] = system: OVCAR-5 ovarian
# [46] = system: PC-3 prostate
# [47] = system: UO-31 renal
# [48] = system: M14 melanoma
# [49] = system: A498 renal
# [50] = system: MDA-MB-435
# [51] = system: KM12 colon
# [52] = system: T-47D breast
# [53] = system: NCI-H460 lung
# [54] = system: SF-268 CNS
# [55] = system: OVCAR-4 ovarian
# [56] = system: LOX IMVI melanoma
# [57] = system: SR leukemia
# [58] = system: MCF7 breast
# [59] = system: HCC-2998 colon
compound,measurement,setting,value
CC1=NNC(=O)C1C1CC(c2c[nH]c3ccccc23)=NNC1=O (configuration not stated),TGI,[1],> 100 µM
same,TGI,[2],> 100 µM
same,TGI,[3],> 100 µM
same,TGI,[4],> 100 µM
same,TGI,[5],> 100 µM
same,TGI,[6],> 100 µM
same,TGI,[7],> 100 µM
same,TGI,[8],> 100 µM
same,TGI,[9],> 100 µM
same,TGI,[10],> 100 µM
same,TGI,[11],> 100 µM
same,TGI,[12],> 100 µM
same,TGI,[13],> 100 µM
same,TGI,[14],> 100 µM
same,TGI,[15],> 100 µM
same,TGI,[16],> 100 µM
same,TGI,[17],> 100 µM
same,TGI,[18],> 100 µM
same,TGI,[19],> 100 µM
same,TGI,[20],> 100 µM
same,TGI,[21],> 100 µM
same,TGI,[22],> 100 µM
same,TGI,[23],> 100 µM
same,TGI,[24],> 100 µM
same,TGI,[25],> 100 µM
same,TGI,[26],> 100 µM
same,TGI,[27],> 100 µM
same,TGI,[28],> 100 µM
same,TGI,[29],> 100 µM
same,TGI,[30],> 100 µM
same,TGI,[31],> 100 µM
same,TGI,[32],> 100 µM
same,TGI,[33],> 100 µM
same,TGI,[34],> 100 µM
same,TGI,[35],> 100 µM
same,TGI,[36],> 100 µM
same,TGI,[37],> 100 µM
same,TGI,[38],> 100 µM
same,TGI,[39],> 100 µM
same,TGI,[40],> 100 µM
same,TGI,[41],> 100 µM
same,TGI,[42],> 100 µM
same,TGI,[43],> 100 µM
same,TGI,[44],> 100 µM
same,TGI,[45],> 100 µM
same,TGI,[46],> 100 µM
same,TGI,[47],> 100 µM
same,TGI,[48],> 100 µM
same,TGI,[49],> 100 µM
same,TGI,[50],> 100 µM
same,TGI,[51],> 100 µM
same,TGI,[52],> 100 µM
same,TGI,[53],> 100 µM
same,TGI,[54],> 100 µM
COc1cc2c3c(c1)CCCN3CCC2,TGI,[1],> 10 µM
same,TGI,[2],> 10 µM
same,TGI,[3],> 10 µM
same,TGI,[4],> 10 µM
same,TGI,[6],> 10 µM
same,TGI,[7],> 10 µM
same,TGI,[8],> 10 µM
same,TGI,[9],> 10 µM
same,TGI,[10],> 10 µM
same,TGI,[11],> 10 µM
same,TGI,[12],> 10 µM
same,TGI,[13],> 10 µM
same,TGI,[14],> 10 µM
same,TGI,[15],> 10 µM
same,TGI,[16],> 10 µM
same,TGI,[17],> 10 µM
same,TGI,[18],> 10 µM
same,TGI,[19],> 10 µM
same,TGI,[20],> 10 µM
same,TGI,[21],> 10 µM
same,TGI,[22],> 10 µM
same,TGI,[23],> 10 µM
same,TGI,[24],> 10 µM
same,TGI,[25],> 10 µM
same,TGI,[26],> 10 µM
same,TGI,[27],> 10 µM
same,TGI,[28],> 10 µM
same,TGI,[29],> 10 µM
same,TGI,[30],> 10 µM
same,TGI,[31],> 10 µM
same,TGI,[32],> 10 µM
same,TGI,[55],> 10 µM
same,TGI,[33],> 10 µM
same,TGI,[34],> 10 µM
same,TGI,[35],> 10 µM
same,TGI,[36],> 10 µM
same,TGI,[37],> 10 µM
same,TGI,[38],> 10 µM
same,TGI,[39],> 10 µM
same,TGI,[40],> 10 µM
same,TGI,[41],> 10 µM
same,TGI,[42],> 10 µM
same,TGI,[43],> 10 µM
same,TGI,[44],> 10 µM
same,TGI,[46],> 10 µM
same,TGI,[56],> 10 µM
same,TGI,[57],> 10 µM
same,TGI,[47],> 10 µM
same,TGI,[48],> 10 µM
same,TGI,[49],> 10 µM
same,TGI,[50],> 10 µM
same,TGI,[51],> 10 µM
same,TGI,[58],> 10 µM
same,TGI,[52],> 10 µM
same,TGI,[59],> 10 µM
same,TGI,[53],> 10 µM
same,TGI,[54],> 10 µM
CC1=C2[C@@H](CC1)[C@]1(C)O[C@@](c3ccccc3)(C[C@H]1OC(=O)CO)[C@H]2OC(=O)/C=C/c1ccccc1,GI50,[1],15.3 µM
same,TGI,[1],29.7 µM
same,GI50,[2],19 µM
same,TGI,[2],44.8 µM
same,GI50,[3],17.1 µM
same,TGI,[3],37.3 µM
same,GI50,[4],14.5 µM
same,TGI,[4],38 µM
same,GI50,[5],0.487 µM
same,TGI,[5],15.8 µM
same,GI50,[6],7.99 µM
same,TGI,[6],41.4 µM
same,GI50,[7],5.23 µM
same,TGI,[7],25.6 µM
same,GI50,[8],24.3 µM
same,TGI,[8],62.4 µM
same,GI50,[9],0.0388 µM
same,TGI,[9],1.31 µM
same,GI50,[10],16.8 µM
same,TGI,[10],45.4 µM
same,GI50,[11],21.9 µM
same,TGI,[11],49.3 µM
same,GI50,[12],16.6 µM
same,TGI,[12],34.5 µM
same,GI50,[13],0.354 µM
same,TGI,[13],19.9 µM
same,GI50,[14],0.348 µM
same,TGI,[14],16 µM
same,GI50,[15],19.2 µM
same,TGI,[15],49.5 µM
same,GI50,[16],16.9 µM
same,TGI,[16],35.8 µM
same,GI50,[17],15 µM
same,TGI,[17],30.6 µM
same,GI50,[18],12.5 µM
same,TGI,[18],41.4 µM
same,GI50,[19],12.8 µM
same,TGI,[19],43.7 µM
same,GI50,[20],20.1 µM
same,TGI,[20],42.8 µM
same,GI50,[21],16 µM
same,TGI,[21],33.6 µM
same,GI50,[22],13.3 µM
same,TGI,[22],35.6 µM
same,GI50,[23],15.1 µM
same,TGI,[23],34.1 µM
same,GI50,[24],16.9 µM
same,TGI,[24],56.9 µM
same,GI50,[25],0.0446 µM
same,TGI,[25],5.61 µM
same,GI50,[26],21.9 µM
same,TGI,[26],60 µM
same,GI50,[27],12.8 µM
same,TGI,[27],31.7 µM
same,GI50,[28],0.0309 µM
same,TGI,[28],0.961 µM
same,GI50,[29],15.3 µM
same,TGI,[29],36 µM
same,GI50,[30],7.43 µM
same,TGI,[30],27.4 µM
same,GI50,[31],13.9 µM
same,TGI,[31],28.1 µM
same,GI50,[32],13.7 µM
same,TGI,[32],29.7 µM
same,GI50,[55],15.2 µM
same,TGI,[55],43 µM
same,GI50,[33],16.6 µM
same,TGI,[33],37.2 µM
same,GI50,[34],14.2 µM
same,TGI,[34],53.6 µM
same,GI50,[35],13 µM
same,TGI,[35],45.1 µM
same,GI50,[36],22.1 µM
same,TGI,[36],59.8 µM
same,GI50,[37],22.6 µM
same,TGI,[37],49.9 µM
same,GI50,[38],15.4 µM
same,TGI,[38],31.6 µM
same,GI50,[39],17.1 µM
same,TGI,[39],44.9 µM
same,GI50,[41],14 µM
same,TGI,[41],61.9 µM
same,GI50,[42],16.8 µM
same,TGI,[42],38.4 µM
same,GI50,[43],18.1 µM
same,TGI,[43],42.2 µM
same,GI50,[44],1.14 µM
same,TGI,[44],30.2 µM
same,GI50,[45],20.2 µM
same,TGI,[45],47.4 µM
same,GI50,[46],8.56 µM
same,TGI,[46],31.5 µM
same,GI50,[56],15.9 µM
same,TGI,[56],32.3 µM
same,GI50,[57],12 µM
same,TGI,[57],44.8 µM
same,GI50,[47],0.618 µM
same,TGI,[47],27.6 µM
same,GI50,[48],15.8 µM
same,TGI,[48],39.1 µM
same,GI50,[49],0.0966 µM
same,TGI,[49],0.478 µM
same,GI50,[50],16.2 µM
same,TGI,[50],35.9 µM
same,GI50,[51],14.8 µM
same,TGI,[51],34.7 µM
same,GI50,[58],8.86 µM
same,TGI,[58],32.1 µM
same,GI50,[52],9.37 µM
same,TGI,[52],48.8 µM
same,GI50,[59],15.2 µM
same,TGI,[59],31.6 µM
same,GI50,[53],16 µM
same,TGI,[53],38.2 µM
same,GI50,[54],2.78 µM
same,TGI,[54],32.5 µM
